We go through 9 compounds from US7666901B2, “Analogs of 17-hydroxywortmannin as PI3K inhibitors” (Wyeth, priority 2004, dated 2010).

The subject of test [1] is LNCaP (human prostate carcinoma). In words: Cell proliferation (MTS) assay, LNCaP. The test is classed as cell-based. The settings on record: Homo sapiens, LNCaP, 72 h, Table 1; three days treatment. On the procedure: (§1) Results of cell proliferation assays for exemplary compounds are shown below in Tables 1 and 2. Cell lines LNCaP (human prostate carcinoma), MDA468 (human breast cancer cell), MDA435 (human breast adenocarcinoma), and DU145 (human prostate carcinoma[…]) were purchased from American Type Culture Collection (ATCC) (Rockville, Md.). Cells were cultured in RPMI Medium 1640 containing 10% fetal bovine serum (FBS) in a 37° C. incubator containing 5% CO2. All cell culture reagents were purchased from Gibco-BRL (Grand Island, N.Y.). Cells were plated in 96-well culture plates at about 3000 cells per well. One day following plating, compounds or vehicle controls (buffer only) were added to cells. Proliferation assays were performed three days post initiation of treatment.
(§2) For a non-radioactive cell proliferation assay, viable cell densities are determined by measuring metabolic conversion (by viable cells) of the dye MTS tatrazolium dye, a cell proliferation assay known by one of skill in the art (MTS assay), a previously established cell proliferation assay. The assay is performed using an assay kit (Promega Corp., Madison, Wis.). The assay plates are incubated for 1-2 hours, and the results are read in a 96-well format plate reader by measuring absorbance at 490 nm. Effect of each compound is calculated as a percentage of control cell growth obtained from vehicle-treated cells grown in the same plate.

Test [2] relates to MDA468 (human breast cancer cell). In words: Cell proliferation (MTS) assay, MDA468. The test is classed as cell-based. To be noted: Homo sapiens, 72 h, Table 1; three days treatment. On the procedure:
as §1, §2

In test [3] the test system is MDA435 (human breast adenocarcinoma). In words: Cell proliferation (MTS) assay, MDA435. The test is classed as cell-based. To be noted: Homo sapiens, MDA435, 72 h, Table 1; three days treatment. On the procedure:
as §1, §2

Test [4] concerns DU145 (human prostate carcinoma/lymphocytic leukemia). In words: Cell proliferation (MTS) assay, DU145. The test is classed as cell-based. To be noted: Homo sapiens, DU-145, 72 h, Table 1; three days treatment. On the procedure:
as §1, §2

The target of another test is T1, Human TOR (Homo sapiens, UniProt P42345).
T1 construct: FLAG
In words: Human TOR (mTOR) kinase assay, DELFIA format. The test is classed as biochemical. The settings on record: Table 1. On the procedure: The PI3K/AKT/TOR pathway is critical for cell proliferation, growth, survival, and angiogensis. Accordingly, compounds of the present invention may also be useful to inhibit TOR activity. Similar in vivo and in vitro assays to those described above with reference to PI3K can be used to determine the minimum concentration of compound sufficient to inhibit TOR. A human TOR assay and a Rat1-IGF1 assay as described in Examples 67 and 68, respectively was performed with some embodiments of the invention. The results of these assays are shown below in Tables 1 and 2.
Human TOR assays (See Toral-Barza, et al. Biochem Biophys. Res. Commun. 2005 Jun. 24; 332(1):304-10) with purified enzyme are performed in 96-well plates by DELFIA format as follows. Enzymes are first diluted in kinase assay buffer (10 mM Hepes (pH 7.4), 50 mM NaCl, 50 mM b-glycerophosphate, 10 mM MnCl2, 0.5 mM DTT, 0.25 mM microcystin LR, and […] BSA). To each well, 12 mL of the diluted enzyme is mixed briefly with 0.5 mL test inhibitor or control vehicle dimethylsulfoxide (DMSO). The kinase reaction is initiated by adding 12.5 mL kinase assay buffer containing ATP and His6-S6K to give a final reaction volume of 25 mL containing 800 ng/mL FLAG-TOR, […] ATP and […] His6-S6K. The reaction plate is incubated for 2 hours (linear at 1-6 hours) at room temperature with gentle shaking and then terminated by adding 25 mL Stop buffer (20 mM Hepes (pH 7.4), 20 mM EDTA, 20 mM EGTA). The DELFIA detection of the phosphorylated (Thr-389) His6-S6K is performed at room temperature using a monoclonal anti-P(T389)-p70S6K antibody (1A5, Cell Signaling) labeled with Europium-N1-ITC (Eu) (10.4 Eu per antibody, PerkinElmer). The DELFIA Assay buffer and Enhancement solution can be purchased from PerkinElmer. 45 mL of the terminated kinase reaction mixture is transferred to a MaxiSorp plate (Nunc) containing 55 mL PBS. The His6-S6K is allowed to attach for 2 hours after which the wells are aspirated and washed once with PBS. 100 mL of DELFIA Assay buffer with 40 ng/mL Eu-P(T389)-S6K antibody is added. The antibody binding is continued for 1 hour with gentle agitation. The wells are then aspirated and washed 4 times with PBS containing 0.05% Tween-20 (PBST). […] of DELFIA Enhancement solution is added to each well and the plates are read in a PerkinElmer Victor model plate reader. Data obtained is used to calculate enzymatic activity and enzyme inhibition by potential inhibitors.

Another test concerns T2, PI3K.
T2 construct: PI3K FP IC50
In words: Fluorescence polarization assay for PI3K. The test is classed as biochemical. The settings on record: Table 1. On the procedure: This assay is used to determine the IC50 of compounds of the present invention as it identifies inhibitors of PI3 kinase by measuring inhibition.
The assay is run by placing 5 μL of diluted enzyme per well, then 5 μL of diluted compound (or 9.5 μL enzyme then 0.5 μL compound in DMSO) is added and mixed. Then, 10 μL substrate is added to start the reaction. The samples are incubated 30-60 minutes, then the reaction is stopped by adding 20 μL stop/detector mix.
PI3K is diluted with reaction buffer (e.g., 5 μL or 7.5 μL PI3K into 620 μL reaction buffer), and 5 μL of diluted enzyme is used per well. 5 μL reaction buffer or drug diluted in buffer (e.g., 4 μL/100 so final DMSO is 1% in reaction) is added to each. The samples are mixed by pipetting up and down. Alternatively, the enzyme can be diluted to 1215 μL. In this case 9.8 μL is added per well and 0.2 μL compound is added in DMSO.
To prepare 1 mL of substrate solution, 955 μL reaction buffer, 40 μL PIP2, and 2.5 μL ATP are mixed. 10 μL of substrate is added to each well to start the reaction.
Stop/detector mix is prepared by mixing 4 μL Red detector and 1.6 μL or 2.0 μL GST-GRP with 1 mL Stop buffer, which results in 10 nM probe and 70 nM GST-GRP). 20 μL of the stop/detector mix is added to each well to stop the reaction. The plates are read after 30-90 minutes keeping the red probe solutions dark.
For the zero time point, stop/detector mix is added to the enzyme just before adding substrate. For an extra control, stop/detector mix is added to buffer (no enzyme) and substrate or to just buffer (no substrate).
The recommended reaction has 0.06 μL per 20 μL (0.015 μg/20 μL) or 0.01125 μg/15 μL or 0.75 μg/mL.
Plates are read on machines with filters for Tamra. The units are mP with no enzyme controls reading app 190-220 mP units. Fully active enzyme reduces fluorescence polarization down to 70-100 mP after 30 minutes. An active cpd raises the mP values halfway to control or to 120-150 mP units.
(In general: In fluorescence polarisation assays a small probe gives low polarisation when free and higher when bound to something large.)

pIC50: −log10 of the molar value. In brackets after ≈: the same amount, converted by molar mass.

Regarding `CCN(/C=C1/C(=O)O[C@H](COC)[C@@]2(C)C1=C(O)C(=O)C1=C2[C@H](OC(C)=O)C[C@]2(C)[C@@H](O)CC[C@@H]12)CC` [Compound 1, (1E,4S,4aR,5R,6aS,7S,9aR)-1-[(diethylamino)methylene]-7,11-dihydroxy-4-(methoxymethyl)-4a,6a-dimethyl-2,10-dioxo-1,2,4,4a,5,6,6a,7,8,9,9a,10-dodecahydroindeno[4,5-h]isochromen-5-yl acetate], the IC50 in test [1] was 0.075 µg/mL; in test [2] it was 1 µg/mL; in test [3], 6 µg/mL; in test [4], 2 µg/mL.
Compound `COC[C@H]1OC(=O)/C(=C/N2CCCC2)C2=C(O)C(=O)C3=C([C@H](OC(C)=O)C[C@]4(C)[C@@H](O)CC[C@@H]34)[C@]21C` [Compound 2, (1E,4S,4aR,5R,6aS,7S,9aR)-7,11-dihydroxy-4-(methoxymethyl)-4a,6a-dimethyl-2,10-dioxo-1-(Pyrrolidin-1-ylmethylene)-1,2,4,4a,5,6,6a,7,8,9,9a,10-dodecahydroindeno[4,5-h]isochromen-5-yl acetate] gave a negative-log IC50 (pIC50) against Human TOR of less than 4.70. For the same compound, the half-maximal inhibitory concentration (IC50) was determined as 0.1 µg/mL in test [1], 1 µg/mL in test [2], 6 µg/mL in test [3] and 1.4 µg/mL in test [4].
With `CCN(/C=C1/C(=O)O[C@H](COC)[C@@]2(C)C1=C(O)C(=O)C1=C2[C@H](OC(C)=O)C[C@@]2(C)C1CC[C@@H]2OC=O)CC` (stereo partly drawn) [Compound 18, (1E,4S,4aR,5R,6aS,7S)-1-[(diethylamino)methylene]-7-(formyloxy)-11-hydroxy-4-(methoxymethyl)-4a,6a-dimethyl-2,10-dioxo-1,2,4,4a,5,6,6a,7,8,9,9a,10-dodecahydroindeno[4,5-h]isochromen-5-yl acetate], the pIC50 against Human TOR is 5.33. The IC50 in test [1] is 0.11 µg/mL; in test [2] it was 0.4 µg/mL; in test [3], 6 µg/mL; in test [4], 1.5 µg/mL.
As for `COCC1OC(=O)C(=CN(CCC#N)Cc2ccccc2)C2=C(O)C(=O)C3=C(C(OC(C)=O)CC4(C)C(O)CCC34)C21C` (stereo not drawn) [Compound 41, Acetic acid 4-{[benzyl-(2-cyano-ethyl)-amino]-methylene}-6,17-dihydroxy-1-methoxymethyl-10,13-dimethyl-3,7-dioxo-1,3,4,7,10,11,12,13,14,15,16,17-dodecahydro-2-oxa-cyclopenta[a]phenanthren-11-yl ester], the pIC50 at Human TOR was 6.14. Besides, the “PI3K FP IC50” value with PI3K is 0.028 µg/mL. The 50% inhibitory concentration (IC50) in test [1] came out at 1.45 µg/mL (≈ 2.45 µM); in test [2], 5 µg/mL (≈ 8.46 µM).
Taken in the same sequence, the figures for `CCN(C=C1C(=O)OC(COC)C2(C)C1=C(O)C(=O)C1=C2C(OC(C)=O)CC2(C)C(O)CCC12)CCN(CC)CC` (stereo not drawn) [Compound 42, Acetic acid 4-{[(2-diethylamino-ethyl)-ethyl-amino]-methylene}-6,17-dihydroxy-1-methoxymethyl-10,13-dimethyl-3,7-dioxo-1,3,4,7,10,11,12,13,14,15,16,17-dodecahydro-2-oxa-cyclopenta[a]phenanthren-11-yl ester] were 5.83, 0.014 µg/mL, 0.75 µg/mL (≈ 1.3 µM) and 4.1 µg/mL (≈ 7.13 µM).
At Human TOR, `COCC1OC(=O)C(=CN(CCN(C)C)Cc2ccccc2)C2=C(O)C(=O)C3=C(C(OC(C)=O)CC4(C)C(O)CCC34)C21C` (stereo not drawn) [Compound 43, Acetic acid 4-{[benzyl-(2-dimethylamino-ethyl)-amino]-methylene}-6,17-dihydroxy-1-methoxymethyl-10,13-dimethyl-3,7-dioxo-1,3,4,7,10,11,12,13,14,15,16,17-dodecahydro-2-oxa-cyclopenta[a]phenanthren-11-yl ester] had a negative-log IC50 (pIC50) of 5.34. Further, in the test with PI3K, the “PI3K FP IC50” value is 0.027 µg/mL. The half-maximal inhibitory concentration (IC50) was determined as 0.42 µg/mL (≈ 0.69 µM) in test [1] and 3.4 µg/mL (≈ 5.59 µM) in test [2].
The compound `CCC(=O)OC1CC2(C)C(O)CCC2C2=C1C1(C)C(=C(O)C2=O)C(=CN(C)CCN(C)C)C(=O)OC1COC` (stereo not drawn) [Compound 49, Propionic acid 4-{[(2-dimethylamino-ethyl)-methyl-amino]-methylene}-6,17-dihydroxy-1-methoxymethyl-10,13-dimethyl-3,7-dioxo-1,3,4,7,10,11,12,13,14,15,16,17-dodecahydro-2-oxa-cyclopenta[a]phenanthren-11-yl ester] gave a pIC50 on Human TOR of 5.82. Also, the “PI3K FP IC50” value in the test with PI3K is 0.044 µg/mL. Besides, the IC50 was determined as 0.8 µg/mL (≈ 1.46 µM) in test [1] and 4.25 µg/mL (≈ 7.77 µM) in test [2].
Regarding `CCCC(=O)OC1CC2(C)C(O)CCC2C2=C1C1(C)C(=C(O)C2=O)C(=CN(C)CC(C)N(C)C)C(=O)OC1COC` (stereo not drawn) [Compound 63, Butanoic acid 4-{[(2-dimethylamino-propyl)-methyl-amino]-methylene}-6,17-dihydroxy-1-methoxymethyl-10,13-dimethyl-3,7-dioxo-1,3,4,7,10,11,12,13,14,15,16,17-dodecahydro-2-oxa-cyclopenta[a]phenanthren-11-yl ester], the pIC50 on Human TOR was 6.27.
“(1E,4S,4aR,5R,6aS,7S,9aR)-1-({4-[2-(2,5-dioxo-2,5-dihydro-1H-pyrrol-1-yl)ethyl]piperazin-1-yl}methylene)-7,11-dihydroxy-4-(methoxymethyl)-4a,6a-dimethyl-2,10-dioxo-1,2,4,4a,5,6,6a,7,8,9,9a,10-dodecahydroindeno[4,5-h]isochromen-5-yl acetate [Compound 65]”: the “TOR IC50” value at Human TOR was found to be 0.58 µg/mL. Moreover, in the test with PI3K, the “PI3K FP IC50” value is 1.55 µg/mL.

The IC50 is the concentration needed to halve the response being measured. A high value points to a need for much substance. The term pIC50 denotes the IC50 on a negative log10 scale, so that one unit is a factor of ten. A higher pIC50 goes with a small IC50.
